In assay [1] the test system is Brugia malayi. Put plainly: In vitro anti-filarial activity against male adult worms of Brugia. malayi at 100 uM concentration, using motility assay. The class given is functional.
Assay [2] has as its system Brugia malayi. Put plainly: In vitro anti-filarial activity against female adult worms of Brugia. malayi at 100 uM concentration, using motility assay. It is filed as functional.
Assay [3] deals with Brugia malayi. As to the kind of experiment: In vitro anti-filarial activity against male adult worms of Brugia. malayi at 100 uM concentration, using MTT reduction potential assay. It is filed as functional. A general note: Formazan colour is commonly taken as a measure of viable cells.
Assay [4] concerns Brugia malayi. Put plainly: In vitro anti-filarial activity against female adult worms of Brugia. malayi at 100 uM concentration, using MTT reduction potential assay. The class given is functional.
Assay [5] relates to Brugia malayi. Put plainly: In vitro anti-filarial activity against male adult worms of Brugia. malayi at 100 uM concentration, using motility assay D = Dead worms. It is filed as functional, organism-based.
The subject of assay [6] is Brugia malayi. Put plainly: In vitro anti-filarial activity against female adult worms of Brugia. malayi at 100 uM concentration, using motility assay; D = Dead worms. It is filed as functional, organism-based.
The subject of assay [7] is Brugia malayi. As to the kind of experiment: In vitro anti-filarial activity against female adult worms of Brugia. malayi at 100 uM concentration, using motility assay. It is filed as functional.
Assay [8] has as its system Brugia malayi. Put plainly: In vitro anti-filarial activity of the compound against male adult worms of Brugia. malayi at 100 uM concentration, using MTT reduction potential assay. It is filed as functional.
Assay [9] concerns Brugia malayi. As to the kind of experiment: In vitro anti-filarial activity against male adult worms of Brugia. malayi at 100 uM concentration, using motility assay; D = Dead worms. The class given is functional, organism-based.

The values below come from ChEMBL document CHEMBL1131778, “Solid phase synthesis of quinolones” (1999).

The structures appear in SMILES notation.

A word on the inhibition: it is the percentage by which the read-out fell short of the control. Turning to `CCOC(=O)c1cnc2ccc(C(=O)O)cc2c1O`, the Mortality in the assay with Brugia malayi [1] and with Brugia malayi [2] was 3 in each case. Besides, the inhibition at 100 µM in the assay with Brugia malayi [3] and in the assay on Brugia malayi [4] was 0% throughout.
On to `CCCCCCCCNC(=O)c1cnc2ccc(C(=O)O)cc2c1O`, for which the Mortality entry in the assay on Brugia malayi [5] and with Brugia malayi [6] was “Dead worms” in each case. In addition, the inhibition at 100 µM worked out at 62.8% in the assay with Brugia malayi [3] and 84.8% in the assay on Brugia malayi [4].
Regarding `O=C(O)c1ccc2ncc(C(=O)NC3CCCCCC3)c(O)c2c1`, the Mortality in the assay on Brugia malayi [1] and with Brugia malayi [2] was 3 in each case. In addition, the inhibition at 100 µM in the assay with Brugia malayi [3] and in the assay on Brugia malayi [4] was 0% throughout.
With `O=C(O)c1ccc2ncc(C(=O)NC3CCCCC3)c(O)c2c1`, the Mortality in the assay with Brugia malayi [1] and with Brugia malayi [7] was 3 each time. Besides, the inhibition at 100 µM in the assay on Brugia malayi [3] and in the assay with Brugia malayi [4] was 0% throughout.
`CCCCCCNC(=O)c1cnc2ccc(C(=O)O)cc2c1O`: the inhibition at 100 µM was 58.8% in the assay on Brugia malayi [8] and 64.8% in the assay with Brugia malayi [4]. For the same compound, the Mortality entry in the assay with Brugia malayi [6] and in the assay on Brugia malayi [9] was “Dead worms” each time.
